Assay [1] has as its target T1, mmPDE10A7 (Mus musculus, UniProt Q8CA95, M75I).
T1 construct: Full-length mmPDE10A7 cDNA cloned in the pENTR vector was recombined to pDEST™8; made in house; host or cells: Sf9 insect cells (baculovirus, pDEST8 / DH10BAC); used as crude cell lysate supernatant, dialysed for IMAP
T1 sequence (Q8CA95 with tags, fused parts or gaps M75I): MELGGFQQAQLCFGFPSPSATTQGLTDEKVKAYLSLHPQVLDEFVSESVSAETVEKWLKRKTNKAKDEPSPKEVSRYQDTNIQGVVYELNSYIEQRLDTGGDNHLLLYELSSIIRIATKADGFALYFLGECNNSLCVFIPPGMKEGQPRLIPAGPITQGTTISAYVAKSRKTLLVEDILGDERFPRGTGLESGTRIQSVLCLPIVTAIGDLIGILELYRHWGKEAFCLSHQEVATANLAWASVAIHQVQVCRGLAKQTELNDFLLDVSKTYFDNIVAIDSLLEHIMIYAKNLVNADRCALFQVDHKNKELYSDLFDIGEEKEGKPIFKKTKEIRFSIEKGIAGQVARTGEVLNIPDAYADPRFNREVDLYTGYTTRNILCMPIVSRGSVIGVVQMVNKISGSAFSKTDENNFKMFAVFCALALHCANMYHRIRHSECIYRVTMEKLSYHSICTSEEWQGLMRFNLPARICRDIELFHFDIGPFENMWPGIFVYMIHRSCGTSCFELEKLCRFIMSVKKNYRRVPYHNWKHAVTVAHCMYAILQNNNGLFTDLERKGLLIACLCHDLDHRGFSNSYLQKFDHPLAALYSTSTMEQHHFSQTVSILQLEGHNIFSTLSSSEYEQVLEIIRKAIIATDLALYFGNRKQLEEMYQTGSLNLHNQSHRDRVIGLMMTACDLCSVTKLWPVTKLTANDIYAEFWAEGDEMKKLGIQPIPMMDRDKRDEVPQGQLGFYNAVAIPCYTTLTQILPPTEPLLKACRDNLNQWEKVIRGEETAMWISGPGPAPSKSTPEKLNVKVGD
In words: Km determination with [3H]-cAMP/cAMP or [3H]-cGMP/cGMP. Type of assay: biochemical. As to conditions: substrate of mmPDE10A7; 30 minutes at room temperature, pH 8.0. From the text: (§1) Full-length mmPDE10A7 cDNA cloned in the pENTR vector was recombined to pDEST™8 by clonase in DH5α competent bacteria (Invitrogen). DH10BAC, the competent bacteria containing baculovirus genome, was then transformed with the pDEST™8-mmPDE10A7. The white colonies were selected in the presence of gentamicin, kanamycin, tetracycline, Bluogal and IPTG and were confirmed by PCR. Log-phase sf9 cells were then transfected with recombinant baculovirus DNA by the method of Cellfectin in a 6-well plate. Forty-eight to seventy-two hours after the transfection, 0.5 ml medium from the transfected cell plate was added into a 175-cm^2 flask containing 2×10^7 sf9 cells for further amplification of the recombinant baculovirus. The sf9 cells were collected 48 hours after infection.
(§2) To prepare the cell lysate, the sf9 cells expressing mmPDE10A7 were resuspended in cell lysis buffer containing Tris/HCl (pH 7.5) 50 mM, NaCl 10 mM, EGTA 5 mM, EDTA (pH 8.0) 1 mM, DTT 1 mM, Protease Inhibitor Cocktail (Roche) 1 tablet per 50 ml buffer. The cell suspension was then homogenized with a Polytron (PT2100) at speed 20 for 20 seconds on ice and centrifuged at 10,000×g for 20 minutes. The supernatant was then collected and stored at −80° C.

Assay [2] addresses T1, mmPDE10A7. In words: IMAP fluorescence polarization compound inhibition assay. Type of assay: biochemical. As to conditions: recombinant mmPDE10A7 in sf9 cell lysate.
Text: as §1, §2
Then, the cassette was placed in 1 liter of fresh assay buffer and continued to dialyze for 2 more hours at 4° C. After the second dialysis, the cell lysate was recovered with a clean syringe and stored at −80° C.
An IMAP Assay kit (Molecular Device) was used to assess enzyme properties of mmPDE10A7. […] Both the enzyme and the substrates were diluted in the following assay buffer: Tris/HCl (pH 8.0) 50 mM, MgCl2 5 mM, 2-mercaptoethanol 4 mM, BSA 0.33 mg/ml. After incubation, the reaction was stopped by adding 20 μl of diluted (400-fold) binding reagents and was incubated for an hour at room temperature. Then, the plates were counted in Analyst GT (Molecular Device) for fluorescence polarization. The data were analyzed with SoftMax Pro. The high end (EC80 to EC100) of the linear range was served as the working enzyme concentration for compound inhibition assays.
Then, the reaction was stopped by adding 20 μl of diluted binding reagents and counted in Analyst GT for fluorescence polarization.
On the technique in general: Polarisation of emitted light reports the rotation of a fluorescent probe.

The mark [3] stands for this setting: fluorescein labeled cAMP substrate.
[4] abbreviates: fluorescein labeled cGMP substrate.

The results in this text go back to US20060166316A1, “Phosphodiesterase 10a7 isoforms and methods of use” (Memory Pharmaceuticals Corporation, priority 2003, published 2006).

With `Nc1nc2c(ncn2[C@@H]2O[C@@H]3COP(=O)(O)O[C@H]3[C@H]2O)c(=O)[nH]1` [cGMP, cyclic guanosine 5′ monophosphate], in assay [1], the Km (in general, the concentration of substrate that gives half-maximal velocity) amounted to 3.7 µM.

For `Cc1[nH]c(=O)c(C#N)cc1-c1ccncc1` [milrinone], the IC50 entry in assay [2] (setting [3]) and in assay [2] (setting [4]) was “No inhibition” throughout. As for `COc1ccc(Cc2nccc3cc(OC)c(OC)cc23)cc1OC` [papaverine], the IC50 (commonly the concentration that gives 50% inhibition) is 0.044 µM in assay [2] (IC50, fluorescein labeled cAMP substrate) and 0.022 µM in assay [2] (IC50, fluorescein labeled cGMP substrate). Consider `CCOC(=O)C1=C[C@]2(CC)CCCN3CCc4c(n1c1ccccc41)[C@@H]32` [vinpocetine], for which the IC50 entry in assay [2] (setting [3]) and in assay [2] (setting [4]) was “No inhibition” each time.
